# Read-outs that look alike come from different tables or passages of the source. Residues, ends and D or L forms follow the SMILES beside them. *: point of attachment. Propanoyl(3-(9AA-2-yl)) = Nc1c2ccccc2nc2ccc(CCC(=O)*)cc12
# Legend:
# G9a = biological target: T1, G9a (Homo sapiens, UniProt Q96KQ7); assay: G9a FLT protease protection assay; type: biochemical; conditions: for G9a concentration sufficient to confer complete protease protection: G9a (Abcam), 2 nM Endo-LysC
# T1 construct: purchased Millipore; Abcam; BPS Bioscience (via AMSBio)
# T1 sequence (Q96KQ7 1-1210): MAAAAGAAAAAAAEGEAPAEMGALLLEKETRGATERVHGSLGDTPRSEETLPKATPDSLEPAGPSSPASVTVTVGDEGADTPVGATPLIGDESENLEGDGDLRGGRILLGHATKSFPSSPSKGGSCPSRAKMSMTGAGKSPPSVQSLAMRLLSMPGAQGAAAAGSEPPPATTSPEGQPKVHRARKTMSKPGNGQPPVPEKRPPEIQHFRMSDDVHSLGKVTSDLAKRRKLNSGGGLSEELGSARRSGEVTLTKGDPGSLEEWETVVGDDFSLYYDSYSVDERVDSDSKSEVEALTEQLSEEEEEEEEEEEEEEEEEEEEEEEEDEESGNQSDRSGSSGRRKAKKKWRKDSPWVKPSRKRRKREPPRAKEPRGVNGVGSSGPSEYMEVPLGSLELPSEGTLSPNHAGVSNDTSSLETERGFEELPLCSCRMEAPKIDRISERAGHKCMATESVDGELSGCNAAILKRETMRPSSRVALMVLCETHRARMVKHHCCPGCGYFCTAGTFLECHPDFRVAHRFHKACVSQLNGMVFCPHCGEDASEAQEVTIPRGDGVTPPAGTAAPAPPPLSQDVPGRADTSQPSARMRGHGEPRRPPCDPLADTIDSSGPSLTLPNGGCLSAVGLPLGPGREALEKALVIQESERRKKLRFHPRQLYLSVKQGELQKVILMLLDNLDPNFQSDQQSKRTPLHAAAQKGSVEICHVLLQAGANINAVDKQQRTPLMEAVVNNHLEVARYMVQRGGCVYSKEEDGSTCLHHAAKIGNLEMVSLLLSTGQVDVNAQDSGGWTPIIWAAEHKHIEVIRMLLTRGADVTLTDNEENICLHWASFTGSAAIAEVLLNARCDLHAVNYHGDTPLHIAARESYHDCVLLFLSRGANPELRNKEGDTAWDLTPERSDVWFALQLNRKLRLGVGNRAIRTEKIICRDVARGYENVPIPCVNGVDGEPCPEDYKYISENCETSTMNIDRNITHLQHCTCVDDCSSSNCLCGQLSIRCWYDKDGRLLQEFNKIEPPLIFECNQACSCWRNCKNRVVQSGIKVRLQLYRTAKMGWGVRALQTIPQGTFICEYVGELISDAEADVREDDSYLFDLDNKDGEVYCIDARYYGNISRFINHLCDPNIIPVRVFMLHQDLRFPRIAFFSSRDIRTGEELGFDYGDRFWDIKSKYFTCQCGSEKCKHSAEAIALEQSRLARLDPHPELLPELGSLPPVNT
# Method: Assays were performed at room temperature for 2 h and then FLTs measured using a NanoTaurus plate reader (Edinburgh Instruments Ltd.). Each well was then treated with 2 nM protease (Endo-LysC) (10 μl) and the plate incubated at room temperature for 60 min. The FLTs were then re-measured. Controls were included containing no G9a or no protease.
# Peptides 4 and 9 were incubated with SAM (100 μM) and varying concentrations of G9a (Abcam) in 20 μl of assay buffer in a 384-well black microplate (Greiner). The assays were performed at room temperature for 2 h after which FLTs were measured as previously described. 2 nM Endo-LysC (10 μl per well) was then added and FLTs re-measured following 10 min and 60 min incubation with the protease.
# The dependence of the G9a assay on SAM was investigated using both peptide 4 and 9 as substrates. Assays were performed in a 384-well microplate in assay buffer (20 μl) using either 25 nM or 10 nM G9a and 1 μM substrate. SAM concentrations were varied from 200 μM-0.4 μM and assays were incubated for 2 h at room temperature. On completion, Endo-LysC (2 nM) was added to each well and FLTs measured following a 10 min incubation period.
# (§2) Reactions were performed in a 384-well microplate at room temperature for 2 h and stopped by the addition of Endo-LysC (2 nM).
# Alternatively, assays were performed in a 384-well microplate at room temperature with an assay volume of 20 μl per well. To wells containing recombinant G9a enzyme in assay buffer (5 μl) was added peptide in assay buffer (10 μl). Reactions were started by the addition of SAM (5 μl). The plate was shaken and then sealed with a coverslip. […] The concentration of peptide was kept constant at 1 μM. Assays were started at different times and stopped together after 2 h by the addition of Endo-LysC (10 μl in assay buffer; final concentration 2 nM). Following incubation at room temperature for 10 min, the microplate was centrifuged at 500 rpm for 1 min and FLTs measured.
# For inhibitor titrations, compounds (5 μl) were preincubated with G9a (5 μl) for 30 min at room temperature prior to addition of peptide (5 μl) and SAM (5 μl). Controls containing no SAM or no inhibitor were included.
# PRMT5 = biological target: T2, PRMT5 (Homo sapiens, UniProt O14744); assay: PRMT5 FLT protease protection assay; type: biochemical
# T2 construct: purchased BPS BioScience (via AMSBio, UK)
# T2 sequence (O14744 whole entry): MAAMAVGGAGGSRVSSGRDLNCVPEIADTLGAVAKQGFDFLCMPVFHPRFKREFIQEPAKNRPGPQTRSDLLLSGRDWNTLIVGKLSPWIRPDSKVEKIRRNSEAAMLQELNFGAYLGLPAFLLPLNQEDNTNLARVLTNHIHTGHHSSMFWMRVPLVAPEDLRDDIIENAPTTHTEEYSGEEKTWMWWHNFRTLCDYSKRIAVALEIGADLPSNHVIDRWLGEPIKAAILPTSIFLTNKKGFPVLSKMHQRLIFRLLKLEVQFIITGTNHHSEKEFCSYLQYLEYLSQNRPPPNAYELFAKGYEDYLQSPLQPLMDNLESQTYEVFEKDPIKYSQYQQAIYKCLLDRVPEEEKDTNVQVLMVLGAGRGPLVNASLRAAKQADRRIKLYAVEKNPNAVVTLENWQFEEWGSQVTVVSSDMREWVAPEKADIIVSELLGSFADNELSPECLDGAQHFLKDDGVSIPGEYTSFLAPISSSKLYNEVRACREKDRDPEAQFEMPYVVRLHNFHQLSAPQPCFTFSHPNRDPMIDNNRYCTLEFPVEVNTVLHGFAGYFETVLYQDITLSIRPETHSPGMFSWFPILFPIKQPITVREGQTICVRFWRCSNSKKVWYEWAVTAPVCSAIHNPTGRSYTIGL
# Method: The assay was performed at room temperature and samples taken after 0 h, 3.5 h, and 17.5 h time intervals respectively.
# 10 μl of Endo-ArgC (final concentration 10 nM) was added to each well and the plate incubated at room temperature for 60 mins before FLTs were measured. Peptide only controls were included at the same concentration for comparison.
# Conditions were as follows: sinefungin (2 mM-0.1 μM), PRMT5 (50 nM), SAM (10 μM) and peptide 15 (1 μM) in assay buffer (20 μl). Reactions were performed in triplicate in a 384-well microplate at room temperature for 3 h and stopped by the addition of Endo-ArgC (1 nM).
# Endo-ArgC (10 μl in assay buffer) was then added to each well and the plate incubated at room temperature for 15 mins. FLTs were then re-measured. All measurements were performed in triplicate and the final concentration of Endo-ArgC in the wells was 10 nM.
# For inhibitor titrations, compounds (5 μl) were preincubated with PRMT5/peptide 15 (5 μl) for 30 min at room temperature prior to the addition of SAM (5 μl). Assays were run for 3 h at room temperature and stopped by the addition of 10 μl Endo-ArgC. FLTs were measured following a 1 h incubation at room temperature. Controls containing no PRMT5 or no inhibitor were also included. All measurements were performed in triplicate.
# Set7/9 [1] = biological target: T3, Set7/9 (Homo sapiens, UniProt Q8WTS6); assay: Set7/9 FLT protease protection assay; type: biochemical; conditions: for overall lifetime change between substrate and product / maximum range of the assay: Set7/9 time-course, 1 μM peptide
# T3 construct: purchased BPS BioScience (via AMSBio, UK)
# T3 sequence (Q8WTS6 1-366): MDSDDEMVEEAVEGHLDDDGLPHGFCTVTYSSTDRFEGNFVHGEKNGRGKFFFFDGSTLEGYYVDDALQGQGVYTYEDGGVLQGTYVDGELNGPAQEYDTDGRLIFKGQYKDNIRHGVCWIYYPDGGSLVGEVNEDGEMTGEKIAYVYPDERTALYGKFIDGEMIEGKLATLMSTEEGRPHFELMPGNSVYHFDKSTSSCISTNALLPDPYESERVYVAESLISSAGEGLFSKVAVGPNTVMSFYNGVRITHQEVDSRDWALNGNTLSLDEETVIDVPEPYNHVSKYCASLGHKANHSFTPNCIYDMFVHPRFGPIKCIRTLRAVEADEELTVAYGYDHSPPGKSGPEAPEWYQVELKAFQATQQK
# Method: The assay was performed at room temperature and samples taken after 0 h, 2 h, and 6 h time intervals respectively.
# 10 μl of Endo-LysC (final concentration 2 nM) was added to each well and the plate incubated at room temperature for 15 mins before the FLTs were measured using a NanoTaurus plate reader. Peptide only controls were included at the same concentration for comparison.
# Assays were performed in a 20 μl volume in a 384-well black microplate and contained peptide 12 (1 μM) and Set7/9 enzyme (100 nM, 50 nM, 25 nM, or 12.5 nM) in assay buffer. Reactions were stopped at regular intervals by the addition of 10 μl Endo-LysC (final concentration 2 nM). FLTs were measured following 15 min incubation with Endo-LysC at room temperature. All measurements were performed in duplicate using a NanoTaurus plate reader.
# The dependence of the Set7/9 assay on SAM co-factor was investigated using peptide 13 as the substrate. The assay was performed in a 384-well microplate at room temperature for 2 h in assay buffer (20 μl) using 25 nM Set7/9 and 1 μM substrate. SAM concentrations were varied from 100 μM-1.7 nM. On completion, Endo-LysC (2 nM) was added to each well and FLTs measured following a 20 min incubation period.
# as §2
# Alternatively, assays were performed in a 384-well microplate at room temperature with an assay volume of 20 μl per well. To wells containing recombinant Set7/9 enzyme and peptide 12 or 13 in assay buffer (10 μl) was added SAM (10 μl) in assay buffer. Controls containing peptide only were also included. The plate was shaken and then sealed with a coverslip. The final concentration of Set7/9 in the assay varied between 100 nM and 12.5 nM whilst the concentration of peptide and SAM were kept constant at 1 μM and 100 μM respectively. Assays were started at different times and stopped together after 120 min by the addition of Endo-LysC (10 μl in assay buffer; final concentration 2 nM). Following incubation at room temperature for 15 min, the microplate was centrifuged at 500 rpm for 1 min and FLTs measured. All measurements were performed in duplicate.
# For inhibitor titrations, compounds (5 μl) were preincubated with Set7/9 and peptide 13 (5 μl) for 10 min at room temperature prior to addition of SAM (10 μl). Controls containing no SAM or no inhibitor were included.
# [2] = biological target: T4, EZH2/EED/SUZ12/RbAp48/AEBP2 complex (Homo sapiens, UniProt Q15910); conditions: read-out: KM (app) for SAM; peptide 20 (1 μM), 100 ng/well EZH2 complex, 5 h
# T4 sequence (Q15910 whole entry): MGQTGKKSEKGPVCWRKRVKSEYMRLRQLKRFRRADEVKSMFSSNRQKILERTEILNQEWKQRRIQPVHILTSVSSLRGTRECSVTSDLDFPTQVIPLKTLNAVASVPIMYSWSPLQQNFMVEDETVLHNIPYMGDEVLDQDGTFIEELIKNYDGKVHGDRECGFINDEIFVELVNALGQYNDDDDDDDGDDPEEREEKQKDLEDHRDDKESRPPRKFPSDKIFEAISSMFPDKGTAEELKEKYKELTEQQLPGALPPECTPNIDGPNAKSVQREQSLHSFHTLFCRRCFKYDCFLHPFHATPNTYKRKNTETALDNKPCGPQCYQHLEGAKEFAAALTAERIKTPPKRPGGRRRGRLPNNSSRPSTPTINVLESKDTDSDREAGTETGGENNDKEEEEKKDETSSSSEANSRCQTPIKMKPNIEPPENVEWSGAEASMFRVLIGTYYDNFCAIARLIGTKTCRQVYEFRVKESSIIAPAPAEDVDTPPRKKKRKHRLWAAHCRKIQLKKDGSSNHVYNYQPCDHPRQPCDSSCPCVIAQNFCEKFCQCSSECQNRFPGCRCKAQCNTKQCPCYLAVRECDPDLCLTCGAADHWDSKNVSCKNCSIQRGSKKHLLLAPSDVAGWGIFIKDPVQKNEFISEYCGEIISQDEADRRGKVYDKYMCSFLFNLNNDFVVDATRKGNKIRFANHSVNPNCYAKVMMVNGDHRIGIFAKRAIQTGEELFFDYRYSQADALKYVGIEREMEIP
# T4 sequence (O75530 whole entry partner): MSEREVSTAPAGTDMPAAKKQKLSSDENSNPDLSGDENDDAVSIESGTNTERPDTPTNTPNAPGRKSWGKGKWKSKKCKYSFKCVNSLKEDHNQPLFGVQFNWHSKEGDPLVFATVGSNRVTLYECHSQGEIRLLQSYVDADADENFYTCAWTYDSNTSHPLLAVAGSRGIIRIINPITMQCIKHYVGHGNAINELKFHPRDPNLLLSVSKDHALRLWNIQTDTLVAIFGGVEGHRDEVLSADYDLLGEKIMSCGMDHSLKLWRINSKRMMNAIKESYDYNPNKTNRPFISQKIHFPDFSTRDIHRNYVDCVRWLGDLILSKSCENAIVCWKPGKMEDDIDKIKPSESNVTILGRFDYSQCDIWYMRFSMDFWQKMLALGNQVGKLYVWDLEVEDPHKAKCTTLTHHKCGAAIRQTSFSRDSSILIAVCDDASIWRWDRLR
# T4 sequence (Q15022 whole entry partner): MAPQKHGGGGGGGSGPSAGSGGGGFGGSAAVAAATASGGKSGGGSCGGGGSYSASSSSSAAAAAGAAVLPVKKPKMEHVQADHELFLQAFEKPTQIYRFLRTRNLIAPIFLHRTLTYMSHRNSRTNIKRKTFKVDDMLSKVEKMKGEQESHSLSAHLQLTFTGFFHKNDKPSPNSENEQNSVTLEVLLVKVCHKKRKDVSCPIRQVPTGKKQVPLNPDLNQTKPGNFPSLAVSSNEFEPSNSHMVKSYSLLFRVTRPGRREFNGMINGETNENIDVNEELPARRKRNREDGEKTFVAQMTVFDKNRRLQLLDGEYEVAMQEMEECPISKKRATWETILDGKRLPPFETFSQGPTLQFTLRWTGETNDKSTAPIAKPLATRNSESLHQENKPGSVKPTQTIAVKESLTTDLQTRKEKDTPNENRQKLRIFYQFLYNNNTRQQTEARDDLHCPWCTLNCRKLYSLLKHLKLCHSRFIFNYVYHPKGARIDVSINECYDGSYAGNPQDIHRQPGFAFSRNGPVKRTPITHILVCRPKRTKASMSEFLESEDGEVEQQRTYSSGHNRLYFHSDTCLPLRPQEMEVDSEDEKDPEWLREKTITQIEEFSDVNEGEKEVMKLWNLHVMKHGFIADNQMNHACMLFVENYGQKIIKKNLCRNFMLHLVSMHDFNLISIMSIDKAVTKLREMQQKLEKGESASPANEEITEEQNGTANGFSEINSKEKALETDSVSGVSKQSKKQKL
# T4 sequence (Q09028 whole entry partner): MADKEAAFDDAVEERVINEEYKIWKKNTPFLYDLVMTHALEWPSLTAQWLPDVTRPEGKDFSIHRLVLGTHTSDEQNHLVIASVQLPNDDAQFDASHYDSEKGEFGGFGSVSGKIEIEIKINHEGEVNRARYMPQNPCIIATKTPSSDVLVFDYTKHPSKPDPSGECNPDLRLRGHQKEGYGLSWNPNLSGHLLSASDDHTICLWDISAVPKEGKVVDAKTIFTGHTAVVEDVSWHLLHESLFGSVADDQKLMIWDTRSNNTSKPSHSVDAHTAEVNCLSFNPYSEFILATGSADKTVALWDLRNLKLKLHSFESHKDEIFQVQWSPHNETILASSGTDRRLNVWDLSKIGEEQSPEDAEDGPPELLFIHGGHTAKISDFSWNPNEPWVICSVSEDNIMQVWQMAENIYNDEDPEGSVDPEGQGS
# T4 sequence (Q6ZN18 whole entry partner): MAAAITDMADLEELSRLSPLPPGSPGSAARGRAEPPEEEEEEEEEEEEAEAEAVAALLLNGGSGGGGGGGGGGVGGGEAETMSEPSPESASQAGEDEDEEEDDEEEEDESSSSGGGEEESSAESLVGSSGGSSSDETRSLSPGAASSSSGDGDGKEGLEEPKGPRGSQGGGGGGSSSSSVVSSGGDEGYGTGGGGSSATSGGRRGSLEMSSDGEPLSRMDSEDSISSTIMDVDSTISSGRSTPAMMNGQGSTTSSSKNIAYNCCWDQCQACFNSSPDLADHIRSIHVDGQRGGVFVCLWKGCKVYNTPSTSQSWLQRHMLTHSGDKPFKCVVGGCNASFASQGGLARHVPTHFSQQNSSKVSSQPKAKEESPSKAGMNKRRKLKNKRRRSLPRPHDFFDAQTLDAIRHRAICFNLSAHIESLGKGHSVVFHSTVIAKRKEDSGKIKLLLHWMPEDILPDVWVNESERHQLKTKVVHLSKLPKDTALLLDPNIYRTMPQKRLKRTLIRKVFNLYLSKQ
# Method: The dependence of the EZH2 assay on SAM co-factor was investigated using peptide 20 as the substrate. The assay was performed in a 384-well hi-base microplate at room temperature for 5 h in assay buffer (10 μl) using 100 ng/well EZH2 complex and 1 μM substrate. SAM concentrations were varied from 100 μM-0.05 μM. On completion, Endo-LysC (4 nM) was added to each well and FLTs measured following a 15 min incubation period. The data was fitted to a variable slope dose-response model in Graph Pad Prism to determine the KM (app) for SAM.
# For SAM titrations, to wells containing varying concentrations of SAM in assay buffer (2.5 μl) was added EZH2 complex in assay buffer (2.5 μl). Reactions were initiated by the addition of peptide 20 in assay buffer (5 μl). The plate was incubated at room temperature for 5 h and then 10 μl of Endo-LysC in assay buffer was added to each well. Following a further 15 min incubation at room temperature, FLTs were measured. All measurements were performed in triplicate.
# [3] = biological target: T4, EZH2/EED/SUZ12/RbAp48/AEBP2 complex; conditions: read-out: KM for SAM, literature value; literature (Sneeringer et al. 2010), radiometric assay format; cited from earlier work
# PAD4 = biological target: T5, PAD4 (Homo sapiens, UniProt Q9UM07); assay: PAD4 FLT protease protection assay; type: biochemical; conditions: 15 μM peptide, 30 nM PAD4, diluted to 1 μM; 10 nM trypsin 10 min
# T5 construct: purchased Origene (via Insight Biotechnology)
# T5 sequence (Q9UM07 whole entry): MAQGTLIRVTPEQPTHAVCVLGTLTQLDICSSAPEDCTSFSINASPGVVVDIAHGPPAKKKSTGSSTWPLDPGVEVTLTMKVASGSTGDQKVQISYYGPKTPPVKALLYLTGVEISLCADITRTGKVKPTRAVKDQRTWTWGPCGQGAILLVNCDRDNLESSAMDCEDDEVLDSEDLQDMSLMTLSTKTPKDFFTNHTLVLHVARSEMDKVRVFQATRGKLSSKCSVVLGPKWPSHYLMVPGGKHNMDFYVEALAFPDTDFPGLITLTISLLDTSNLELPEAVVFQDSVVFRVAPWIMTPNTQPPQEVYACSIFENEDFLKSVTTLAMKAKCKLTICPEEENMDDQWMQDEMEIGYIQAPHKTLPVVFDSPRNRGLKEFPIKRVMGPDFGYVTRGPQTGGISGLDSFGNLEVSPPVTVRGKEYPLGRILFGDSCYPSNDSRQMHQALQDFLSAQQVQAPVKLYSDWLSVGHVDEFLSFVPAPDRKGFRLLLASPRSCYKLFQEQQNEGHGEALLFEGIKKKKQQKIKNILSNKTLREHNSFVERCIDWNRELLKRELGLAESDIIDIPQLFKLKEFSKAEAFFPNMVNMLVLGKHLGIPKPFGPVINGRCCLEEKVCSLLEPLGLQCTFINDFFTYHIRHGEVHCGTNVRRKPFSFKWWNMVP
# Method: With a suitable HPLC method in hand, PAD4 assays were set up for each of the peptide substrates and aliquots taken at regular time intervals with product formation monitored by RP-HPLC. Each assay was performed in a micro-centrifuge tube containing 15 μM peptide and 30 nM PAD4 (Origene) in assay buffer (300 μl). The assays were performed at room temperature and samples taken at 0 min, 30 min, and 60 min time intervals.
# In order to test if citrullination of peptides 1 and 3 by PAD4 had conferred protection against trypsin, the assay mixtures for these peptides (described above) were diluted to 1 μM concentration with assay buffer and 20 μl of each added to three wells of a 384-well black microplate. The FLTs were measured using the NanoTaurus plate reader as described previously. 10 μl of trypsin (final concentration 10 nM) was then added to each well and the plate incubated at room temperature for 10 mins before the FLTs were re-measured. Peptide only controls were included at the same concentration for comparison.
# The dependence of the PAD4 assay on peptide substrate concentration was investigated. […] From FIG. 73, a KM of 180 nM was determined for substrate 1. […]
# (§1) Where citrullination of the peptide substrate was confirmed, the assay mixtures were diluted 15-fold with assay buffer and transferred to a 384-well microplate (20 μl per well) and FLTs measured. […] FLTs were then re-measured. […]
# PAD2 = biological target: T6, PAD2 (Homo sapiens, UniProt Q9Y2J8); assay: PAD2 FLT protease protection assay; type: biochemical; conditions: 15 μM peptide, 30 nM PAD2, diluted to 1 μM; 10 nM trypsin 10 min
# T6 construct: purchased Modiquest Research
# T6 sequence (Q9Y2J8 whole entry): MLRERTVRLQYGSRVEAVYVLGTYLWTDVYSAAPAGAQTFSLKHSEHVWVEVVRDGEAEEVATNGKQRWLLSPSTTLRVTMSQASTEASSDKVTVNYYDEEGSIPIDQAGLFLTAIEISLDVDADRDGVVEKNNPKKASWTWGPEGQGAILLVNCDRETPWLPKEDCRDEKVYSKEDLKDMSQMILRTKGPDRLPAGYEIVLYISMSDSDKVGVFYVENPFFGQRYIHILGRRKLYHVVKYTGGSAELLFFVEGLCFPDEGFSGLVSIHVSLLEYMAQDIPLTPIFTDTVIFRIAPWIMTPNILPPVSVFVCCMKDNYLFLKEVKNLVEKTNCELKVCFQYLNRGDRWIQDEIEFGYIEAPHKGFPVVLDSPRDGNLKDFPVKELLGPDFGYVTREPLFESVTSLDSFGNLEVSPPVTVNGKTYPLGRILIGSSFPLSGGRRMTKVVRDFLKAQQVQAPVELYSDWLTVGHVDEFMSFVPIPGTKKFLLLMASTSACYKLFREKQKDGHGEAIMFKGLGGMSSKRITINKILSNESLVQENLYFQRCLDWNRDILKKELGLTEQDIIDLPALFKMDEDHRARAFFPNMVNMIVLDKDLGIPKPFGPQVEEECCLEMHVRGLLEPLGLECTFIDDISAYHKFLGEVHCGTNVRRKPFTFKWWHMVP
# Method: Accordingly, peptide 1 (15 μM) was incubated with PAD2 (30 nM) in assay buffer (20 mM Tris pH 8, 200 μM CaCl2, 5 mM DTT, 0.01% CHAPS) (300 μl) and aliquots taken at regular time intervals and analysed by RP-HPLC. The assays were performed at room temperature and samples taken at 0 min, 30 min, and 120 min time intervals
# In order to test if citrullination of peptide 1 by PAD2 had conferred protection against trypsin, the assay mixture was diluted to 1 μM concentration with assay buffer and 20 μl added to three wells of a 384-well black microplate. 10 μl of trypsin (final concentration 10 nM) was added to each well and the plate incubated at room temperature for 10 mins before the fluorescence lifetimes (FLTs) were measured using the NanoTaurus plate reader as described in the Experimental section. Peptide only controls were included at the same concentration for comparison.
# For HPLC monitoring, assays were performed at room temperature in micro-centrifuge tubes with a total assay volume of 300 μl. Reactions were started by addition of peptide 1 to solutions containing recombinant PAD2 enzyme. […]
# as §1
# Set7/9 [4] = biological target: T3, Set7/9; conditions: literature (Gauthier et al. 2012), lower concentration of SAM; read-out: reported IC50; cited from earlier work
compound,measurement,setting,value
K(9AA)ARTK(Me)QTARK^9STGGW-CONH2 [peptide 9],G9a concentration sufficient to confer complete protease protection,"G9a; SAM 100 μM, 2 h",50 nM
same,protease protection after G9a treatment,"G9a; G9a (Millipore) 500 nM, SAM 100 μM, 2 h, 2 nM Endo-LysC 60 min",complete protease protection
"Nc1ncnc2c1ncn2[C@@H]1O[C@H](C[C@@H](N)CC[C@H](N)C(=O)O)[C@@H](O)[C@H]1O [sinefungin, reference compound]",IC50,"PRMT5; peptide 15 (1 μM), PRMT5 50 nM, SAM 10 μM, 3 h",13 µM
"C[S+](CC[C@H](N)C(=O)[O-])C[C@H]1O[C@@H](n2cnc3c(N)ncnc32)[C@H](O)[C@@H]1O (some centres unmarked) [SAM, S-adenosylmethionine, reference compound]",Km,"G9a; peptides 4 and 9 as substrates (1 μM), 25 nM or 10 nM G9a, 2 h room temperature, read-out: Km (app) for SAM",3 to 11 µM
same,Km,"Set7/9 [1]; peptide 13 as substrate (1 μM), 25 nM Set7/9, 2 h, read-out: Km (app) for SAM",0.5 µM
same,Km,[2],0.71 µM
same,Km,[3],0.21 to 0.3 µM
Ac-WSGRGKGGK(9AA)GLGKGGAKRHRK-CONH2 [peptide 15],increase in FLT after Endo-ArgC for peptide exposed to PRMT5,"PRMT5; 150 nM PRMT5, 100 μM SAM, reaction not complete, 10 nM Endo-ArgC 60 min",4.7 ns
WARTKQTARK(9AA)STGGKAPRKQLAK-CONH2 [peptide 12],increase in FLT after Endo-LysC for peptide exposed to Set7/9,"Set7/9 [1]; 15 μM peptide, 172 nM Set7/9, 100 μM SAM, diluted to 1 μM, 2 nM Endo-LysC 15 min",no significant increase in FLT
same,overall lifetime change between substrate and product / maximum range of the assay,Set7/9 [1]; 2 nM Endo-LysC 15 min,approximately 2.4 ns
C[C@@H](O)[C@H](NC(=O)[C@H](CO)NC(=O)[C@H](CCC(N)=O)NC(=O)CCc1ccc2nc3ccccc3c(N)c2c1)C(=O)N[C@@H](CCCNC(=N)N)C(=O)NCC(=O)N[C@@H](CO)C(=O)NCC(=O)N[C@@H](Cc1c[nH]cn1)C(=O)N[C@@H](Cc1c[nH]c2ccccc12)C(=O)N[C@@H](CCCCN)C(=O)N[C@@H](CCCCN)C(N)=O [peptide 1] ({Propanoyl(3-(9AA-2-yl))}-QSTRGSGHWKK-NH2),increase in FLT after trypsin for peptide exposed to PAD4,PAD4,no increase in FLT
same,increase in FLT after trypsin for peptide exposed to PAD2,PAD2,no increase in FLT
"Nc1ncnc2c1ncn2[C@@H]1O[C@H](CSCC[C@H](N)C(=O)O)[C@@H](O)[C@H]1O [SAH, S-adenosylhomocysteine, reference compound]",IC50,"Set7/9 [1]; peptide 13 (1 μM), Set7/9 50 nM, SAM 500 nM, 2 h",37 µM
same,IC50,Set7/9 [4],16 µM
C[C@@H](O)[C@H](NC(=O)[C@H](CO)NC(=O)[C@H](CCC(N)=O)NC(=O)[C@H](Cc1c[nH]cn1)NC(=O)[C@@H](N)CCCCNC(=O)CCc1ccc2nc3ccccc3c(N)c2c1)C(=O)N[C@@H](CCCNC(=N)N)C(=O)NCC(=O)N[C@@H](CO)C(=O)NCC(=O)N[C@@H](Cc1c[nH]cn1)C(=O)N[C@@H](Cc1c[nH]c2ccccc12)C(=O)N[C@@H](CCCCN)C(=O)N[C@@H](CCCCN)C(N)=O [peptide 3] (H-K(Propanoyl(3-(9AA-2-yl)))HQSTRGSGHWKK-NH2; N-terminus assumed),increase in FLT after trypsin for peptide exposed to PAD4,PAD4,no increase in FLT
WRTKQTARK(9AA)STGGKAPRKQLAK-CONH2 [peptide 13],overall lifetime change between substrate and product / maximum range of the assay,Set7/9 [1]; 2 nM Endo-LysC 15 min,4 ns
9AA-TARK^9STGW-CONH2 [peptide 4],G9a concentration sufficient to confer complete protease protection,"G9a; SAM 100 μM, 2 h",50 nM
